Legend:
sigma-2 receptor = target: T1, sigma-2 receptor (Rattus norvegicus, UniProt Q5U3Y7); assay: Sigma-2 receptor binding, [3H](+)-DTG displacement in rat liver membrane homogenates
T1 construct: guinea pig brain (sigma-1 assay) or rat liver (sigma-2 assay) membrane homogenates; from tissue; host or cells: rat liver membrane homogenate
T1 sequence (Q5U3Y7 1-176): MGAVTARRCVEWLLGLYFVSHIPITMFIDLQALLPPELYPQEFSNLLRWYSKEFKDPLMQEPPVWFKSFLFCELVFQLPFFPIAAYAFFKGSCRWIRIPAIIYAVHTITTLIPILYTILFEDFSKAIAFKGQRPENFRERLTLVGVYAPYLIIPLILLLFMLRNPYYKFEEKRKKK
Experimental: In order to verify its unaltered target recognition properties, the binding affinity of SW IV-134 to the sigma-2 receptor was determined using previously established methods employing rat liver membrane homogenates (see M&M and Ref [19] for details on receptor binding determinations). […] As another means to probe for the ability of SW IV-134 to bind to the sigma-2 receptor, we performed a competition assay using intact ovarian cancer cells and the fluorescently labeled SW43 homolog SW120 [21].
The sigma-1 and sigma-2 receptor binding affinities of SW IV-134 were determined as previously described. […] Each filter was washed three times with 200 μL of ice-cold wash buffer, and the bound radioactivity quantified using a Wallac 1450 MicroBeta liquid scintillation counter (Perkin Elmer, Boston, MA). Nonspecific binding was determined in the presence of 10 μM cold haloperidol. […]
Table S1. […] The sigma-1 and sigma-2 receptor binding affinities of S W I V-134 were determined as previously described (22). For details see also the Materials and Methods section. a Mean ± S .E .M .K i values were determined by at least three ex periments. b Ki for inhibiting the binding of [ 3H] […]

cIAP-1 and cIAP-2 = assay: Western blot for cIAP-1 and cIAP-2 levels; type: cell-based; details: 10 μM
Experimental: (§1) Figure 4 SW IV-134 engages in SMAC-dependent pathway activation. (A) SKOV3 cells were treated with vehicle only (Ctrl.), SW43 (10 μM), and SW IV-134 (10 μM) for 4 hours and cell lysates were subjected to Western blot analysis using antibodies against XIAP, cIAP-1, cIAP-2, NF-қB and NIK. While XIAP seems unaffected under the conditions used, cIAP-1 and cIAP-2 proteins are readily undetectable shortly post treatment. SW IV-134 treatment also leads to accumulation of NF-қB inducing kinase (NIK) and activation of NF-қB pathway. (B) SKOV3 cells were treated with SW IV-134 at the indicated doses either alone or in the presence of proteasome inhibitor MG132 (20 μM) for 18 hours. […] Cell viability was determined as described in the experimental methods (p < 0.011, Student’s t-test).
(§2) Cells were lysed in radioimmunoprecipitation assay buffer [50 mM Tris, 150 mM sodium chloride, 1.0 mM EDTA, 1% Nonidet P40, and 0.25% SDS (pH 7.0)], supplemented with complete protease inhibitor cocktail (Roche, Mannheim) and phosphatase inhibitor cocktail 1 (Sigma Chemical Co., St. Louis, MO). The protein concentration was determined using a BioRad Dc protein assay kit (Bio-Rad Laboratories, Hercules, CA). Lysates containing 30 μg of protein were run on a 12% polyacrylamide gel and transferred to a PVDF membrane (Bio-Rad Laboratories, Hercules, CA). […]

SKOV3 cells = assay: Annexin V binding (apoptosis), flow cytometry; type: cell-based; details: SKOV3 cells, 3, 6 and 10 μM, 16 hours
Experimental: SKOV3 cells were treated with different concentrations of SW IV-134 (3 μM, 6 μM, and 10 μM) for 16 hours. Staining was performed using the Annexin V Apoptosis Detection Kit (BioLegend, San Diego, CA) according to the manufacturer’s instructions. The apoptosis rate was determined by flow cytometry (FACSCalibur, BD Biosciences, San Jose, CA).
Supplementary file 1476-4598-13-50-S4.pdf: Additional file 4: Figure S3 Flow cytometric determination of apoptosis. SKOV3 cells were treated with increasing concentrations of SW IV-134. Untreated cells served as a negative staining control. The cells were then assessed for apoptosis induction by flow cytometry following staining with propidium iodide/Annexin V. Click here for file

XIAP = target: T2, XIAP (Homo sapiens, UniProt P98170); assay: Western blot for XIAP levels; type: cell-based; details: SKOV3 cells, 10 μM, 4 hours
T2 construct: endogenous in cells; host or cells: SKOV3
Experimental: as §1, §2

T2 sequence (P98170 whole entry): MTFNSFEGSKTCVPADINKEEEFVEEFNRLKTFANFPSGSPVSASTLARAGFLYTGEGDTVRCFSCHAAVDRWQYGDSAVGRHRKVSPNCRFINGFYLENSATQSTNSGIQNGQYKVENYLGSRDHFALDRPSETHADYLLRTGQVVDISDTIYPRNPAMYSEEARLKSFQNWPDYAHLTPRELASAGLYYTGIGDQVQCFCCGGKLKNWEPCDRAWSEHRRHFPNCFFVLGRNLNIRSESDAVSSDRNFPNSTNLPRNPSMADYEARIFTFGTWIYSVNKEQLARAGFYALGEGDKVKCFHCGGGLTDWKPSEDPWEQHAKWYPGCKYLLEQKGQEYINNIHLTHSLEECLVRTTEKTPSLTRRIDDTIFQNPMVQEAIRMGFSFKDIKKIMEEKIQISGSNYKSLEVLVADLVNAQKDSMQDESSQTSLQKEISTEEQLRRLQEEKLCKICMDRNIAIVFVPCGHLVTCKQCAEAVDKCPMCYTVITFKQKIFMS

SMILES	Ki (sigma-2 receptor) [nM]	cIAP-1 protein level (cIAP-1 and cIAP-2; SKOV3, Hey A8 and Hey A8 MDR cells, 2 hours)	cIAP-1 and cIAP-2 protein levels (cIAP-1 and cIAP-2; SKOV3 cells, 4 hours)	Annexin V binding (SKOV3 cells)	XIAP levels (XIAP)
COc1ccc(C)cc1NC(=O)OC1CC2CCCC(C1)N2CCCCCCCCCCN[C@@H](C)C(=O)N[C@H](C(=O)N1CCC[C@H]1C(=O)N[C@@H]1CCCc2ccccc21)C(C)(C)C (stereo partly drawn) [SW IV-134]	22.6 ± 1.8	readily undetectable shortly after treatment	rapid loss of both cIAP-1 and cIAP-2	increased Annexin V binding relative to the untreated control cells in a dose dependent manner	without affecting the XIAP levels
COc1ccc(C)cc1NC(=O)OC1CC2CCCC(C1)N2CCCCCCCCCCN (stereo not drawn) [SW43, reference compound]	7.1 ± 1.3				

From article PMC4015918, “Conjugation to a SMAC mimetic potentiates sigma-2 ligand induced tumor cell death in ovarian cancer” (Molecular Cancer, 2014)
